Several values for one entry are separate records, joined by “and”; a condition that tells them apart may be missing. Identical values can stand only once. Toxic doses and inconclusive results are not listed. Cut-off read from the data, not from the text of the source: active = T/C of 150% or more; inactive = T/C below 125%.
Test system: L1210 leukemia ip in BDF1 mice, survival T/C
Assay: NCI In Vivo Anticancer Drug Screen. Data for tumor model L1210 Leukemia (intraperitoneal) in B6D2F1 (BDF1) mice
Conditions: endpoint: mean survival time, higher = longer survival
How it was run: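 Transplanted-tumor mice were given test agent; controls received vehicle only. Survival readings from the two groups were divided (treated over control).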

[1] = dose: 100.0 mg/kg/injection, schedule: Q01DX001 (ip), vehicle: Klucel (hydroxypropylcellulose) (HPC)
[2] = dose: 100.0 mg/kg/injection, schedule: Q01DX009 (ip), vehicle: Klucel (hydroxypropylcellulose) (HPC)
[3] = dose: 200.0 mg/kg/injection, schedule: Q01DX001 (ip), vehicle: Klucel (hydroxypropylcellulose) (HPC)
[4] = dose: 200.0 mg/kg/injection, schedule: Q01DX009 (ip), vehicle: Klucel (hydroxypropylcellulose) (HPC)
[5] = dose: 400.0 mg/kg/injection, schedule: Q01DX009 (ip), vehicle: Klucel (hydroxypropylcellulose) (HPC)
[6] = dose: 100.0 mg/kg/injection, schedule: Q04DX003 (ip), vehicle: saline with Tween-80
[7] = dose: 100.0 mg/kg/injection, schedule: Q04DX003 (ip), vehicle: Klucel (hydroxypropylcellulose) (HPC)
[8] = dose: 200.0 mg/kg/injection, schedule: Q04DX003 (ip), vehicle: Klucel (hydroxypropylcellulose) (HPC)
[9] = dose: 400.0 mg/kg/injection, schedule: Q04DX003 (ip), vehicle: Klucel (hydroxypropylcellulose) (HPC)
[10] = dose: 50.0 mg/kg/injection, schedule: Q01DX001 (ip), vehicle: saline
[11] = dose: 100.0 mg/kg/injection, schedule: Q01DX001 (ip), vehicle: saline
[12] = dose: 200.0 mg/kg/injection, schedule: Q01DX001 (ip), vehicle: saline
[13] = dose: 400.0 mg/kg/injection, schedule: Q01DX001 (ip), vehicle: saline
[14] = dose: 100.0 mg/kg/injection, schedule: Q04DX002 (ip), vehicle: Klucel (hydroxypropylcellulose) (HPC)
[15] = dose: 200.0 mg/kg/injection, schedule: Q04DX002 (ip), vehicle: Klucel (hydroxypropylcellulose) (HPC)
[16] = dose: 400.0 mg/kg/injection, schedule: Q04DX002 (ip), vehicle: Klucel (hydroxypropylcellulose) (HPC)
[17] = dose: 100.0 mg/kg/injection, schedule: Q01DX009 (ip), vehicle: saline with Tween-80
[18] = dose: 200.0 mg/kg/injection, schedule: Q01DX009 (ip), vehicle: saline with Tween-80
[19] = dose: 400.0 mg/kg/injection, schedule: Q01DX009 (ip), vehicle: saline with Tween-80
[20] = dose: 50.0 mg/kg/injection, schedule: Q01DX009 (ip), vehicle: Klucel (hydroxypropylcellulose) (HPC)

Measured: T/C

CCc1c(C=O)[nH]c(=S)n(C)c1=O
inactive: [1] 104 % of control | [2] 108 % of control | [3] 98 % of control | [4] 88 % of control | dose: 400.0 mg/kg/injection, schedule: Q01DX001 (ip), vehicle: Klucel (hydroxypropylcellulose) (HPC) 101 % of control | [5] 98 % of control

Clc1ccc(OCc2sc3ccc(Cl)cc3c2CN2CCCCC2)cc1
inactive: dose: 25.0 mg/kg/injection, schedule: Q04DX003 (ip), vehicle: saline with Tween-80 88 % of control | dose: 50.0 mg/kg/injection, schedule: Q04DX003 (ip), vehicle: saline with Tween-80 87 % of control | [6] 90 % of control and 92 % of control

OC12CCCC3CCCC(CCC1)C32 (stereo not given)
inactive: dose: 100.0 mg/kg/injection, schedule: Q01DX009 (ip), vehicle: saline sonified 108 % of control | [7] 106 % of control | dose: 200.0 mg/kg/injection, schedule: Q01DX009 (ip), vehicle: saline sonified 111 % of control | [8] 96 % of control | dose: 400.0 mg/kg/injection, schedule: Q01DX009 (ip), vehicle: saline sonified 92 % of control | [9] 104 % of control

Cc1cc2nc3c(=O)[nH]c(=O)nc-3n(CCOC(=O)CCC(=O)O)c2cc1C
inactive: [10] 116 % of control | [11] 103 % of control | [12] 114 % of control | [13] 103 % of control

COc1ccc(C(=O)OCc2ccccc2CN2CCCCC2)cc1
inactive: [14] 102 % of control | [15] 102 % of control | [16] 86 % of control

CNCc1ccccc1Cc1ccccc1
inactive: dose: 75.0 mg/kg/injection, schedule: Q01DX001 (ip), vehicle: saline 100 % of control | dose: 150.0 mg/kg/injection, schedule: Q01DX001 (ip), vehicle: saline 97 % of control | dose: 300.0 mg/kg/injection, schedule: Q01DX001 (ip), vehicle: saline 95 % of control

CC12CCCC([N+](=O)[O-])(C1)NC(=O)C2C#N (stereo not given)
inactive: [11] 105 % of control | [12] 106 % of control | [13] 101 % of control

COC(=O)c1c2cccccc-2c(C(=O)OC)c1N
inactive: dose: 100.0 mg/kg/injection, schedule: Q04DX002 (ip), vehicle: saline with Tween-80 97 % of control | dose: 200.0 mg/kg/injection, schedule: Q04DX002 (ip), vehicle: saline with Tween-80 91 % of control | dose: 400.0 mg/kg/injection, schedule: Q04DX002 (ip), vehicle: saline with Tween-80 94 % of control

CC(C)(C)c1ccc(OC(=S)N2CCOCC2)cc1
inactive: [17] 98 % of control | [6] 96 % of control | [18] 107 % of control | dose: 200.0 mg/kg/injection, schedule: Q04DX003 (ip), vehicle: saline with Tween-80 96 % of control | [19] 102 % of control | dose: 400.0 mg/kg/injection, schedule: Q04DX003 (ip), vehicle: saline with Tween-80 93 % of control

O=C(O)CCC(NC(=O)OCc1ccccc1)C(=O)OCc1ccccc1 (stereo not given)
inactive: [20] 101 % of control | [2] 103 % of control | [7] 101 % of control | [4] 90 % of control | [8] 105 % of control

CC(NP1(=O)OCC(C)(N=Cc2ccccc2)CO1)c1ccccc1 (stereo not given)
inactive: [10] 104 % of control | [11] 98 % of control | [12] 104 % of control | [13] 95 % of control

Nc1ccc(Cc2cc(=O)[nH]c(=O)[nH]2)cc1[N+](=O)[O-]
inactive: dose: 25.0 mg/kg/injection, schedule: Q01DX001 (ip), vehicle: Klucel (hydroxypropylcellulose) (HPC) 98 % of control | dose: 50.0 mg/kg/injection, schedule: Q01DX001 (ip), vehicle: Klucel (hydroxypropylcellulose) (HPC) 107 % of control | [1] 88 % of control | [3] 88 % of control

Cc1ccc2c(C)cc(=O)[nH]c2c1
inactive: dose: 100.0 mg/kg/injection, schedule: Q01DX001 (ip), vehicle: carboxymethylcellulose (CMC) 102 % of control | [17] 102 % of control | dose: 200.0 mg/kg/injection, schedule: Q01DX001 (ip), vehicle: carboxymethylcellulose (CMC) 91 % of control | [18] 101 % of control | dose: 400.0 mg/kg/injection, schedule: Q01DX001 (ip), vehicle: carboxymethylcellulose (CMC) 105 % of control | [19] 106 % of control

NC(CCC(=O)NC(CSCCC(=O)c1ccccc1)C(=O)NCC(=O)O)C(=O)O (stereo not given)
inactive: dose: 25.0 mg/kg/injection, schedule: Q01DX009 (ip), vehicle: water 96 % of control | dose: 50.0 mg/kg/injection, schedule: Q01DX009 (ip), vehicle: water 91 % of control | dose: 100.0 mg/kg/injection, schedule: Q01DX009 (ip), vehicle: water 94 % of control | dose: 200.0 mg/kg/injection, schedule: Q01DX009 (ip), vehicle: water 92 % of control | dose: 400.0 mg/kg/injection, schedule: Q01DX009 (ip), vehicle: water 97 % of control

O=C1N=C(c2ccccc2)OC1C(=O)c1ccccc1 (stereo not given)
inactive: [11] 110 % of control | [12] 94 % of control

Cc1ccc([N+](=O)[O-])cc1NC(=O)N(CCC#N)C1CCCCC1
inactive: [2] 101 % of control | [4] 105 % of control | [5] 95 % of control

O=C(CC(C[N+](=O)[O-])c1ccccc1)c1ccc(Cl)cc1 (stereo not given)
inactive: [2] 96 % of control | [4] 90 % of control | [5] 92 % of control

CCOc1ccccc1NC(c1ccc(OC)cc1)P(=O)(c1ccccc1)c1ccccc1 (stereo not given)
inactive: [7] 101 % of control | [8] 101 % of control | [9] 92 % of control

COC(=O)C(C)C1(O)CCCCC1 (stereo not given)
inactive: dose: 100.0 mg/kg/injection, schedule: Q01DX009 (ip), vehicle: saline 96 % of control | dose: 200.0 mg/kg/injection, schedule: Q01DX009 (ip), vehicle: saline 93 % of control | dose: 400.0 mg/kg/injection, schedule: Q01DX009 (ip), vehicle: saline 91 % of control

CC1(C)C2CCCC1(CCOC(=O)COc1cc(Cl)c(Cl)cc1Cl)C2 (stereo not given)
inactive: [14] 98 % of control | [15] 91 % of control | [16] 88 % of control

Cc1ccc(NC(=O)OCCOc2cc(C)c(Cl)c(C)c2)c([N+](=O)[O-])c1
inactive: [20] 95 % of control | [2] 95 % of control | [7] 90 % of control | [4] 91 % of control | [8] 97 % of control | [9] 92 % of control

CCCCCCNC(=O)c1ccc(C(=O)NCCCCCC)cc1
inactive: [2] 94 % of control and 101 % of control | [4] 102 % of control | [5] 95 % of control and 90 % of control

OC(C/C(Cc1ccccc1)=N/Nc1ccccc1)(C(F)(F)F)C(F)(F)F
inactive: [2] 94 % of control | [7] 96 % of control | [4] 96 % of control | [8] 88 % of control | [5] 100 % of control | [9] 107 % of control

FC(F)(F)c1ccc2c(c1)N(CCCN1CCN(CCN3CCOCC3)CC1)c1ccccc1S2
inactive: dose: 0.78 mg/kg/injection, schedule: Q01DX009 (ip), vehicle: saline 100 % of control | dose: 1.56 mg/kg/injection, schedule: Q01DX009 (ip), vehicle: saline 106 % of control | dose: 3.12 mg/kg/injection, schedule: Q01DX009 (ip), vehicle: saline 95 % of control | dose: 12.5 mg/kg/injection, schedule: Q04DX003 (ip), vehicle: saline 108 % of control | dose: 25.0 mg/kg/injection, schedule: Q04DX003 (ip), vehicle: saline 116 % of control

Nc1nc(NCCO)c(NC=O)c(=O)[nH]1
inactive: dose: 100.0 mg/kg/injection, schedule: Q01DX Z (ip), vehicle: methylcellulose (MC) 103 % of control | dose: 128.0 mg/kg/injection, schedule: Q01DX Z (ip), vehicle: methylcellulose (MC) 95 % of control | dose: 222.0 mg/kg/injection, schedule: Q01DX Z (ip), vehicle: methylcellulose (MC) 94 % of control | dose: 333.0 mg/kg/injection, schedule: Q01DX Z (ip), vehicle: methylcellulose (MC) 97 % of control

C=C(C)COc1ccccc1
inactive: dose: 100.0 mg/kg/injection, schedule: Q01DX005 (ip), vehicle: Klucel (hydroxypropylcellulose) (HPC) 101 % of control | [2] 100 % of control | [14] 100 % of control | dose: 200.0 mg/kg/injection, schedule: Q01DX005 (ip), vehicle: Klucel (hydroxypropylcellulose) (HPC) 108 % of control | [4] 102 % of control | [15] 100 % of control | dose: 400.0 mg/kg/injection, schedule: Q01DX005 (ip), vehicle: Klucel (hydroxypropylcellulose) (HPC) 97 % of control | [16] 107 % of control

Source: PubChem BioAssay AID248 (DTP/NCI, 2004)
